Measured values published in patent US20070122503A1, “USE OF EXTRACTS FROM CIMICIFUGA RACEMOSA AND OF TECTORIGENIN AS AN ESTROGEN-TYPE, ORGANOSELECTIVE MEDICAMENT HAVING NO UTEROTROPHIC EFFECT” (BIONORICA ARZNEIMITTEL GMBH, priority 1998, published 2007).

Columns and labels:
Format in all cases: in vivo, rat
[1] = tested on: ovariectomized Sprague-Dawley rats; assay: Acute experiment, single i.v. injection of Belamcanda sinensis extract: serum LH
Protocol: All experiments described below were carried out with ovariectomized Sprague-Dawley rats (=ovx rats) having a weight between 240 and 280 g. The onset of the effect of the estradiol-type effect of Belamcanda sinensis extract occurs very quickly. Even after a single i.v. administration of vehicle, estradiol and Belamcanda sinensis extract to ovx rats, pulsatility ceases both under E2 and under Belamcanda sinensis. […] Cremophor is an emulsifier on the basis of polyethoxylated castor oil derivatives. The results are represented in FIG. 2. […] On the day of the experiment, 6 blood samples were taken at 10-min intervals. Immediately following taking of the 6th sample, 62.5 mg of the Belamcanda sinensis extract or 10 μg 17-β-estradiol (E2) or the solvent (5%) cremophor in isotonic NaCl 1 ml), respectively, were injected intravenously, and blood samples were taken for another 2 hours in 10-minute intervals. 6 hours after the intravenous administration, the animals were decapitated, blood was obtained and the uteri removed, weighed and deep-frozen in liquid nitrogen.

[2] = tested on: uterine VEGF, IGF1 and C3 genes, CCO gene; assay: Acute experiment, single i.v. injection: uterine gene expression; conditions: six hours after single i.v. injection; vs controls
Protocol: All experiments described below were carried out with ovariectomized Sprague-Dawley rats (=ovx rats) having a weight between 240 and 280 g. […] On the day of the experiment, 6 blood samples were taken at 10-min intervals. Immediately following taking of the 6th sample, 62.5 mg of the Belamcanda sinensis extract or 10 μg 17-β-estradiol (E2) or the solvent (5%) cremophor in isotonic NaCl 1 ml), respectively, were injected intravenously, and blood samples were taken for another 2 hours in 10-minute intervals. 6 hours after the intravenous administration, the animals were decapitated, blood was obtained and the uteri removed, weighed and deep-frozen in liquid nitrogen.

[3] = tested on: ovariectomized Sprague-Dawley rats; assay: Subacute test, daily s.c. injection through 7 days (Belamcanda sinensis): body weight, uterus weight, serum LH; conditions: 7 days daily s.c., 62.5 mg extract or 10 μg estradiol
Protocol: In the blood samples, LH and the estradiol immunoreactivity were determined.

[4] = tested on: uterine VEGF gene, CCO gene; assay: Subacute test 7 days s.c. (Belamcanda sinensis): gene expression in uterine mRNA extract; conditions: after one-week treatment, 10 μg estradiol s.c. daily
Protocol: (§1) All experiments described below were carried out with ovariectomized Sprague-Dawley rats (=ovx rats) having a weight between 240 and 280 g.
The effects of repeated administration of estradiol, Belamcanda sinensis extract and vehicle on overall weight, uterus weight, hormone level and gene activation of uterus and bone were examined on ovariectomized rats after daily s.c. application through seven days.
8 animals each per test group (24 altogether) were daily injected subcutaneously between 8:00 and 9:00 a.m. with 62.5 mg Belamcanda sinensis extract and 10 μg estradiol or the solvent (cremophor 5%, 1 ml), respectively. 6 h after the last application, the animals were decapitated and from every animal the aorta, the uterus and the left femur head were removed, cleaned, and frozen in liquid nitrogen.

[5] = tested on: collagen-1A1, osteocalcin, IGF1 and TGFβ-mRNA, CCO gene in femur head; assay: Subacute test 7 days s.c. (Belamcanda sinensis): mRNA expression in extracts of the femur head; conditions: 7 days daily s.c.
Protocol: In extracts of the femur head, the collagen-1A1, osteocalcin, IGF1 and TGFβ-mRNA expression was determined.

[6] = tested on: ovariectomized Sprague-Dawley rats; assay: Repeated s.c. administration of Cimicifuga racemosa over 7 days: uterus weight, vagina, LH; conditions: 7 days s.c. once daily
Protocol: (§5) 14 days following ovarectomy at the earliest, the animals have the respective test substance injected subcutaneously in a dose of 62.5 mg Cimicifuga racemosa/rat or 8 pg estradiol/rat once daily in the morning over a period of 7 days. Both substances were dissolved in 5% cremophor, the control animals only received the vehicle.
The LH concentration in the blood of the animals was determined by means of RIA.

[7] = tested on: mRNA for the estrogen receptor; assay: Repeated administration of Cimicifuga racemosa: mRNA expression in preoptic region of the hypothalamus (RT-PCR); conditions: 7 days s.c.; semi-quantitative RT-PCR
Protocol: Both substances were dissolved in 5% cremophor, the control animals only received the vehicle.
(§6) Following decapitation of the animals, brains, uterus and femur were prepared for mRNA-recovery. […] The expression of the estrogen-regulated genes in the above identified organs was determined by means of semi-quantitative RT-PCR.
(§7) As another marker for the estrogenic effect, the activation of mRNA of estrogen-inducible proteins was measured. What was measured here was tissue from uterus, from bone tissue (femur) and from the preoptic region of the hypothalamus.

[8] = tested on: mRNA for collagen 1 and osteocalcin; assay: Repeated administration of Cimicifuga racemosa: mRNA expression in bone (femur) (RT-PCR); conditions: 7 days s.c., semi-quantitative RT-PCR
Protocol: as §5, §6, §7

[9] = tested on: mRNA for IGF1 and complement factor C3; assay: Repeated administration of Cimicifuga racemosa: mRNA expression in uterus (RT-PCR); conditions: 7 days s.c.; semi-quantitative RT-PCR
Protocol: as §5, §6
What was measured here was tissue from uterus, from bone tissue (femur) and from the preoptic region of the hypothalamus.

[10] = tested on: ovariectomized Sprague-Dawley rats; assay: One-time i.v. administration of tectorigenin: LH levels in the blood; conditions: single i.v. 7 mg tectorigenin
Protocol: as §1
(§2) Following a single administration of tectorigenin, the time development of influence on the LH levels in the blood and the estradiol-type immunoreactivity were determined. The concentration of tectorigenin in the blood of the animals, determined with the aid of E2-RIA, after 20 min corresponds to about 100 pg equivalent estradiol.
(§3) Execution: OVX rats had catheters placed in the vena jugularis externa under ether anesthesia 24 hours before the beginning of the experiment, in accordance with the method of Harms and Ojeda (Harms P G; Ojeda S R: A rapid and simple procedure for chronic cannulation of the rat jugular vein. J. Appl. Physiol. (1974) 36: 391-392). The tube end was positioned in a skin pocket in the neck. In order not to have to touch the animals for obtaining the blood samples, the catheter was prolonged with the aid of a silicone tube. Catheter and tube were rinsed with Ringer solution containing 50 IU heparin/ml.
Blood samples of 100 μl each were drawn from the animals at 10-min intervals, and the withdrawn volume replaced with Ringer/heparin solution. After the 6th sample, 1.0 ml of the respective test solution was applied intravenously. As test solutions there were used: 2% cremophor (=vehicle solution), tectorigenin 7 mg/ml vehicle, 17-β-estradiol 10 μg/ml vehicle. Blood was taken at ten-minute intervals through additional 140 min.
The blood samples thus obtained were filled into a 0.5 ml Eppendorf reaction vessel containing 10 μl heparin-Losung (5000 IU/ml, Liquemin), centrifuged for 10 min at 10 000*g, and the plasma stored at −20° C. until performance of the radioimmunoassays.
(§4) The RIAs for LH and Prolaktin are based on antisera, reference and iodisation preparations from NIH (Bethesda, Md., USA). The concentrations of estradiol and of the cross-reactive isoflavones were measured with the aid of an RIA from DPC, Bad Nauheim.

[11] = One-time i.v. administration of tectorigenin: estradiol-type immunoreactivity in blood (E2-RIA); conditions: after 20 min; single i.v. 7 mg tectorigenin; ovx rats
Protocol: as §1, §2
as §3, with “heparin/ml. […]” for “heparin/ml.”
as §4

For `C[C@]12CC[C@@H]3c4ccc(O)cc4CC[C@H]3[C@@H]1CC[C@@H]2O` [E2, 17-β-estradiol], the LH pulsatility ([1]; 62.5 mg extract or 10 μg E2, ovx rats) was “ceases”, the “serum LH levels” value ([1]; 62.5 mg extract or 10 μg E2, prior to and 2 hours after injection, vs previous values and cremophor controls) was “significant inhibitions” and the “expression of the uterine C3 gene” value [2] was “clear increase”. For the same compound, the “expression of the uterine IGF1 gene” value [2] was “clear increase”, the “expression of the uterine VEGF gene” value [2] was “clear increase” and the average body weights ([3]; vs cremophor) was “significantly lighter”. The uterus weights ([3]; vs cremophor) was “more than tripled”, the “serum LH levels” value ([3]; vs cremophor controls) was “more marked” and the “gene expression of VEGF in uterine mRNA extract” value [4] was 149 % of the control value. For the same compound, the “IGF1 mRNA expression in femur head” value [5] was “significantly inhibited”, the “TGFβ mRNA expression in femur head” value [5] was “significantly inhibited” and the “collagen-1A1 mRNA expression in femur head” value [5] was “significantly inhibited”. For the same compound, the “constitutive CCO gene expression in femur head” value [5] was “without having an influence”, the “osteocalcin mRNA expression in femur head” value [5] was “significantly inhibited” and the “LH concentrations in the blood, mean values” ([6]; 62.5 mg Cimicifuga racemosa/rat or 8 pg estradiol/rat, n=8, RIA) was 7.83 ng/mL. For the same compound, the “Uterus weights (wet), mean values” ([6]; 62.5 mg Cimicifuga racemosa/rat or 8 pg estradiol/rat, n=8, ovx rats) was 702.1 mg, the “LH levels compared with vehicle (in words)” value ([6]; ovx rats) was “lowered significantly” and the “hornification of the vaginal epithelium tissue” value ([6]; ovx rats) was “quite contrary”. The “uterus weight compared with vehicle (in words)” value ([6]; ovx rats) was “more than three times the weight”, the “expression of the mRNA for the estrogen receptor in the preoptic region of the hypothalamus” value [7] was “stimulate” and the “expression of the mRNA for osteocalcin in bone tissue” value [8] was “reduces, in analogy with estradiol”. The “expression of the mRNA for the bone-specific collagen 1 in bone tissue” value [8] was “reduces, in analogy with estradiol”, the “mRNA for IGF1 in the uterus” value [9] was “increases” and the “mRNA for complement factor C3 in the uterus” value [9] was “increases”.
In the case of `COc1c(O)cc2occ(-c3ccc(O)cc3)c(=O)c2c1O` [tectorigenin], the “kinetics of the LH reduction up to 60 min following i.v. administration” value ([10]; compared with 10 μg 17-β-estradiol) is reported as “precisely correspond to the one of estradiol”, the “LH levels in the blood” value ([10]; ovx rats) is reported as “rapid LH reduction” and the “course of LH after 60 min following i.v. administration” value ([10]; sampling to 140 min) is reported as “do not result in further reduction but slowly increases again”. For the same compound, the “concentration of tectorigenin in the blood, determined with E2-RIA” value [11] was “about 100 pg equivalent estradiol”.
